The values below come from PubChem BioAssay AID1259407 (Chemical Carcinogenesis Research Information System (CCRIS), 2018).

The subject of this data set is CCRIS mutagenicity, Ames/micronucleus/aberration tests. As to the kind of experiment: CCRIS mutagenicity studies. The following applies: Test System: AMES SALMONELLA TYPHIMURIUM
Where [1] appears, read: Strain/Indicator: TA98, Metabolic Activation: NONE, Method: STANDARD PLATE.
[2] abbreviates: Strain/Indicator: TA98, Metabolic Activation: RAT, LIVER, S-9, AROCLOR 1254, Method: STANDARD PLATE.
[3] abbreviates: Strain/Indicator: TA100, Metabolic Activation: NONE, Method: STANDARD PLATE.
[4] abbreviates: Strain/Indicator: TA100, Metabolic Activation: RAT, LIVER, S-9, AROCLOR 1254, Method: STANDARD PLATE.
[5] abbreviates: Strain/Indicator: TA1535, Metabolic Activation: NONE, Method: STANDARD PLATE.
[6] abbreviates: Strain/Indicator: TA1535, Metabolic Activation: RAT, LIVER, S-9, AROCLOR 1254, Method: STANDARD PLATE.
The mark [7] stands for this setting: Strain/Indicator: TA1537, Metabolic Activation: NONE, Method: STANDARD PLATE.
Where [8] appears, read: Strain/Indicator: TA1537, Metabolic Activation: RAT, LIVER, S-9, AROCLOR 1254, Method: STANDARD PLATE.
Where [9] appears, read: Strain/Indicator: TA1538, Metabolic Activation: NONE, Method: STANDARD PLATE.
[10] abbreviates: Strain/Indicator: TA1538, Metabolic Activation: RAT, LIVER, S-9, AROCLOR 1254, Method: STANDARD PLATE.
The mark [11] stands for this setting: Strain/Indicator: TA98, Metabolic Activation: NONE, Method: PREINCUBATION
The mark [12] stands for this setting: Strain/Indicator: TA100, Metabolic Activation: NONE, Method: PREINCUBATION

Calls of active or inactive are those of the source. How the calls were made is not given here.

As for `C1COCO1`, the mutagenic call under setting [1] is “inactive; negative”; the mutagenic call under setting [2] is “inactive; negative”; the mutagenic call under setting [3] is “inactive; negative”; the mutagenic call under setting [4] is “inactive; negative”; the mutagenic call under setting [5] was “inactive; negative”; the mutagenic call under setting [6] is “inactive; negative”. Also, the mutagenic call reads like this: under setting [7], “inactive; negative”; under setting [8], “inactive; negative”; under setting [9], “inactive; negative”; under setting [10], “inactive; negative”.
As to `Fc1cc2cccnc2c(F)c1F`, the mutagenic call (Strain/Indicator: TA100, Metabolic Activation: RAT LIVER S-9, PHENOBARBITAL AND 5,6-BENZOFLAVONE, Method: PREINCUBATION) is “inactive; negative”.
As for `FC(F)(F)c1cccc(Cl)c1`, the mutagenic call was “inactive; negative” (Strain/Indicator: TA97, Metabolic Activation: HAMSTER, LIVER, S-9, AROCLOR 1254 (10%), Method: PREINCUBATION); “inactive; negative” (Strain/Indicator: TA97, Metabolic Activation: HAMSTER, LIVER, S-9, AROCLOR 1254 (30%), Method: PREINCUBATION); “inactive; negative” (Strain/Indicator: TA97, Metabolic Activation: NONE, Method: PREINCUBATION); “inactive; negative” (Strain/Indicator: TA97, Metabolic Activation: RAT, LIVER, S-9, AROCLOR 1254 (10%), Method: PREINCUBATION); “inactive; negative” (Strain/Indicator: TA97, Metabolic Activation: RAT, LIVER, S-9, AROCLOR 1254 (30%), Method: PREINCUBATION); “inactive; negative” (Strain/Indicator: TA98, Metabolic Activation: HAMSTER, LIVER, S-9, AROCLOR 1254 (10%), Method: PREINCUBATION). Moreover, the mutagenic call is, setting by setting: (Strain/Indicator: TA98, Metabolic Activation: HAMSTER, LIVER, S-9, AROCLOR 1254 (30%), Method: PREINCUBATION) “inactive; negative”; under setting [11], “inactive; negative”; under setting [1], “inactive; negative”; (Strain/Indicator: TA98, Metabolic Activation: RAT, LIVER, S-9, AROCLOR 1254 (10%), Method: PREINCUBATION) “inactive; negative”; (Strain/Indicator: TA98, Metabolic Activation: RAT, LIVER, S-9, AROCLOR 1254 (30%), Method: PREINCUBATION) “inactive; negative”; under setting [2], “inactive; negative”. Further, the mutagenic call was “inactive; negative” (Strain/Indicator: TA100, Metabolic Activation: HAMSTER, LIVER, S-9, AROCLOR 1254 (10%), Method: PREINCUBATION); “inactive; negative” (Strain/Indicator: TA100, Metabolic Activation: HAMSTER, LIVER, S-9, AROCLOR 1254 (30%), Method: PREINCUBATION); “inactive; negative” under setting [12]; “inactive; negative” under setting [3]; “inactive; negative” (Strain/Indicator: TA100, Metabolic Activation: RAT, LIVER, S-9, AROCLOR 1254 (10%), Method: PREINCUBATION); “inactive; negative” (Strain/Indicator: TA100, Metabolic Activation: RAT, LIVER, S-9, AROCLOR 1254 (30%), Method: PREINCUBATION). Further, the mutagenic call runs as follows: under setting [4], “inactive; negative”; (Strain/Indicator: TA1535, Metabolic Activation: HAMSTER, LIVER, S-9, AROCLOR 1254 (10%), Method: PREINCUBATION) “inactive; negative”; (Strain/Indicator: TA1535, Metabolic Activation: HAMSTER, LIVER, S-9, AROCLOR 1254 (30%), Method: PREINCUBATION) “inactive; negative”; (Strain/Indicator: TA1535, Metabolic Activation: NONE, Method: PREINCUBATION) “inactive; negative”; under setting [5], “inactive; negative”; (Strain/Indicator: TA1535, Metabolic Activation: RAT, LIVER, S-9, AROCLOR 1254 (10%), Method: PREINCUBATION) “inactive; negative”. Also, the mutagenic call was “inactive; negative” (Strain/Indicator: TA1535, Metabolic Activation: RAT, LIVER, S-9, AROCLOR 1254 (30%), Method: PREINCUBATION); “inactive; negative” under setting [6]; “inactive; negative” (Strain/Indicator: TA1537, Metabolic Activation: HAMSTER, LIVER, S-9, AROCLOR 1254 (30%), Method: PREINCUBATION); “inactive; negative” (Strain/Indicator: TA1537, Metabolic Activation: NONE, Method: PREINCUBATION); “inactive; negative” under setting [7]; “inactive; negative” (Strain/Indicator: TA1537, Metabolic Activation: RAT, LIVER, S-9, AROCLOR 1254 (30%), Method: PREINCUBATION). Further, the mutagenic call under setting [8] is “inactive; negative”, the mutagenic call under setting [9] was “inactive; negative” and the mutagenic call under setting [10] is “inactive; negative”.
In the case of `CC1=CC(=O)C=CC1=O`, the mutagenic call is “inactive; negative” under setting [11]; “inactive; negative” (Strain/Indicator: TA98, Metabolic Activation: RAT, LIVER, S-9, PHENOBARBITAL AND 5,6-BENZOFLAVONE, Method: PREINCUBATION); “inactive; negative” under setting [12]; “inactive; negative” (Strain/Indicator: TA102, Metabolic Activation: NONE, Method: PREINCUBATION); “inactive; negative” (Strain/Indicator: TA102, Metabolic Activation: RAT, LIVER, S-9, PHENOBARBITAL AND 5,6-BENZOFLAVONE, Method: PREINCUBATION); “inactive; negative” (Strain/Indicator: TA104, Metabolic Activation: NONE, Method: PREINCUBATION). Besides, the mutagenic call is “inactive; negative” (Strain/Indicator: TA104, Metabolic Activation: RAT, LIVER, S-9, PHENOBARBITAL AND 5,6-BENZOFLAVONE, Method: PREINCUBATION); “inactive; negative” (Strain/Indicator: TA2637, Metabolic Activation: NONE, Method: PREINCUBATION); “active; positive” (Strain/Indicator: TA2637, Metabolic Activation: RAT, LIVER, S-9, PHENOBARBITAL AND 5,6-BENZOFLAVONE, Method: PREINCUBATION).
